Literature values, collected in patent US20240254438A1, “MULTI-REGIONAL HUMAN NEURAL CIRCUITS IN ASSEMBLOIDS DERIVED FROM PLURIPOTENT STEM CELLS” (The Board of Trustees of the Leland Stanford Junior …, priority 2021, published 2024).
Each block holds one compound with its values, some of them ahead of it.

Columns and labels:
[1] = target: T1, TNKS2 (Homo sapiens, UniProt Q9H2K2)
T1 sequence (Q9H2K2 1-1166): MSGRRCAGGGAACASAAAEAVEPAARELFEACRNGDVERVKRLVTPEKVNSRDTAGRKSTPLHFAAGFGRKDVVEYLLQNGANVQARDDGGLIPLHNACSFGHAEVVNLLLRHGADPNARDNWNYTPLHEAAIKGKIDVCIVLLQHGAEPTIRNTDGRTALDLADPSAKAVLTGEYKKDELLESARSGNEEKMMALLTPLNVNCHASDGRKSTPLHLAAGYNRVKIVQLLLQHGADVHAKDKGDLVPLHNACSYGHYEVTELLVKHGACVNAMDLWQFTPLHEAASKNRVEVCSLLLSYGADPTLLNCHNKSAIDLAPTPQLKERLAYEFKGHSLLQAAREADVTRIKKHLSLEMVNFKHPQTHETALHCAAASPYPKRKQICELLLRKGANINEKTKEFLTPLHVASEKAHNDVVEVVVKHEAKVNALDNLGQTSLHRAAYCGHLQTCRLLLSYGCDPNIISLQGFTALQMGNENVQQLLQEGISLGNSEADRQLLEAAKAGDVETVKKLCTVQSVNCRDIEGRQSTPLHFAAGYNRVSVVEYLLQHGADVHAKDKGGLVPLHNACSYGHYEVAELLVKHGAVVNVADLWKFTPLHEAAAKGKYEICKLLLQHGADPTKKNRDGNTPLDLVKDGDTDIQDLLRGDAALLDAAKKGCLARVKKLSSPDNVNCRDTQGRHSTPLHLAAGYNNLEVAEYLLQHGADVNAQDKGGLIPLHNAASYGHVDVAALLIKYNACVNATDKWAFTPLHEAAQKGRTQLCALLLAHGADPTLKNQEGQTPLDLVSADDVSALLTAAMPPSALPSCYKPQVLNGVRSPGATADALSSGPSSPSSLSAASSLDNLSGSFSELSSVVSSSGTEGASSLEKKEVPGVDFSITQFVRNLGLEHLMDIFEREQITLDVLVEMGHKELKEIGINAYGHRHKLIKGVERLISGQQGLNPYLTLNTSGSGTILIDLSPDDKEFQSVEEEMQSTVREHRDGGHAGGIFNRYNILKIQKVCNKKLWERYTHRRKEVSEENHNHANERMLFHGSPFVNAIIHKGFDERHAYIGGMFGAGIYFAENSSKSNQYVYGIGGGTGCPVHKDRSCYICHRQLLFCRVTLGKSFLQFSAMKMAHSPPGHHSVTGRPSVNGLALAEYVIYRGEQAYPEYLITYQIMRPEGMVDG

[2] = target: element-binding protein (CBP) (Homo sapiens, UniProt Q92793); details: binds to element-binding protein (CBP)
[3] = system: PORCN
[4] = target: Smo heptahelical domain (Homo sapiens, UniProt Q99835)
[5] = system: Wnt processing and secretion; details: cell-free assay
[6] = system: Wnt signaling; details: TM3 cells
[7] = system: PORCN; details: HEK293 cells, Wnt3A-mediated TCF luciferase

Sequence of element-binding protein (CBP) (Q92793 whole entry): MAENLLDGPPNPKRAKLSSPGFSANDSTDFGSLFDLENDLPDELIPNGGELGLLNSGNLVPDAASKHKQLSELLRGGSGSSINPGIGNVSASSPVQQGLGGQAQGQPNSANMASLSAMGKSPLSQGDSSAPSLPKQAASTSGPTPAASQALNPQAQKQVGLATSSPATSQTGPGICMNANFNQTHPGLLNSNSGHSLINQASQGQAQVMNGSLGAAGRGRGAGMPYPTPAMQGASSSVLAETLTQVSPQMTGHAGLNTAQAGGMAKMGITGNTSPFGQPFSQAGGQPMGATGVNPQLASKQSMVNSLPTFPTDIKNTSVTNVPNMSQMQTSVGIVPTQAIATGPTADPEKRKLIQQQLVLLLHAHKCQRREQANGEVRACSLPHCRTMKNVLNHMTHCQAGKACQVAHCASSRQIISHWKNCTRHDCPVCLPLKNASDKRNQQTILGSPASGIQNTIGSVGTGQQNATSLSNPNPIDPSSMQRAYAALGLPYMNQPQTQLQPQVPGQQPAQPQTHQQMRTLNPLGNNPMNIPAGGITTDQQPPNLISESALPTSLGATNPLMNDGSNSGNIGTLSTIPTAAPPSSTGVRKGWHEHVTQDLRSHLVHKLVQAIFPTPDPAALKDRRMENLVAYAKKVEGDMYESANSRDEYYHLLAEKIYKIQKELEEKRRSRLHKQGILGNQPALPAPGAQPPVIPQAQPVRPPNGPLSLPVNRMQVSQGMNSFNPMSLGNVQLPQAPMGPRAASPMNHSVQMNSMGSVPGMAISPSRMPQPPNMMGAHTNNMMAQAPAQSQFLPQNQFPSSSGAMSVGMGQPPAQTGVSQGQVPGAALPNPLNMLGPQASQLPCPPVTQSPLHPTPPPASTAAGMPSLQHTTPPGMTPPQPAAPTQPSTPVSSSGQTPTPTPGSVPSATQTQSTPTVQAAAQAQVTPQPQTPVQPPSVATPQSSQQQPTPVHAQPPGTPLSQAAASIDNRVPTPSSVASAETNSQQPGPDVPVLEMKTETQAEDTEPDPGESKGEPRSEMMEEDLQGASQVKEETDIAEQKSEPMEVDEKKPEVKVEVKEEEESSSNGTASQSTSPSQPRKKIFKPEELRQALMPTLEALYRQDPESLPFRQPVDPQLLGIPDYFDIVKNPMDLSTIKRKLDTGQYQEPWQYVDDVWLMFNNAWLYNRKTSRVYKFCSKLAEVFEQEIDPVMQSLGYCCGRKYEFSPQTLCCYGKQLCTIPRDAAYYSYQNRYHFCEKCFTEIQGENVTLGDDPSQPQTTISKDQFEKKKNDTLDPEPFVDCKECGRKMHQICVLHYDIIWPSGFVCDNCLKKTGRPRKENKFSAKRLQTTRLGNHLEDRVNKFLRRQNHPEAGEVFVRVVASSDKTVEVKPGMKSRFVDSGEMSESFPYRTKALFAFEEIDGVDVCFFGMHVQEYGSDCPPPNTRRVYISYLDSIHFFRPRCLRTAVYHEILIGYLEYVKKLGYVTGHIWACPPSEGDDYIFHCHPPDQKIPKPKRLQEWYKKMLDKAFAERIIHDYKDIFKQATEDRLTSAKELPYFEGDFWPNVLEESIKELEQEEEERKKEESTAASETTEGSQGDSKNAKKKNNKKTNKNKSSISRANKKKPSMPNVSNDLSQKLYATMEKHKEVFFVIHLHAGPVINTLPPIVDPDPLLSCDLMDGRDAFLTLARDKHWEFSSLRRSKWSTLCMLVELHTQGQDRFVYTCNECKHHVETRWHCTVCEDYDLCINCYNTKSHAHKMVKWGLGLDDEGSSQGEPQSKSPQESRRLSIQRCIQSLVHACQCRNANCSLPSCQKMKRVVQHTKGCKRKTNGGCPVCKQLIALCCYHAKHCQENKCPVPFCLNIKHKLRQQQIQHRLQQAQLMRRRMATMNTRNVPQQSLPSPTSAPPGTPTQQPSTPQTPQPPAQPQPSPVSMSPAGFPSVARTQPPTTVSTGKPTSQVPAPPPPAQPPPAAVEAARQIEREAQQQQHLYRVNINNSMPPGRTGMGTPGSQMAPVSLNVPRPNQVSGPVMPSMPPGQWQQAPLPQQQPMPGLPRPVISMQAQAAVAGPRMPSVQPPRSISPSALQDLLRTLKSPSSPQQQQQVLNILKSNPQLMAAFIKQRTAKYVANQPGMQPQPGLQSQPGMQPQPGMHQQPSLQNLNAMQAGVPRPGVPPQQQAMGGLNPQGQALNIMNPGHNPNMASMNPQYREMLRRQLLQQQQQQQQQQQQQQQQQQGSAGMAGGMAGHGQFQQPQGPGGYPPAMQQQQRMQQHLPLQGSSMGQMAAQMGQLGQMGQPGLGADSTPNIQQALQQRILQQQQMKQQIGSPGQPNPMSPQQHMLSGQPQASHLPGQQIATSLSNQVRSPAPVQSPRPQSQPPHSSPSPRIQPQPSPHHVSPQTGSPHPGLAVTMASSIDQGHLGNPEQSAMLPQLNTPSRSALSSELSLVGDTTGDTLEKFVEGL
Sequence of Smo heptahelical domain (Q99835 28-787): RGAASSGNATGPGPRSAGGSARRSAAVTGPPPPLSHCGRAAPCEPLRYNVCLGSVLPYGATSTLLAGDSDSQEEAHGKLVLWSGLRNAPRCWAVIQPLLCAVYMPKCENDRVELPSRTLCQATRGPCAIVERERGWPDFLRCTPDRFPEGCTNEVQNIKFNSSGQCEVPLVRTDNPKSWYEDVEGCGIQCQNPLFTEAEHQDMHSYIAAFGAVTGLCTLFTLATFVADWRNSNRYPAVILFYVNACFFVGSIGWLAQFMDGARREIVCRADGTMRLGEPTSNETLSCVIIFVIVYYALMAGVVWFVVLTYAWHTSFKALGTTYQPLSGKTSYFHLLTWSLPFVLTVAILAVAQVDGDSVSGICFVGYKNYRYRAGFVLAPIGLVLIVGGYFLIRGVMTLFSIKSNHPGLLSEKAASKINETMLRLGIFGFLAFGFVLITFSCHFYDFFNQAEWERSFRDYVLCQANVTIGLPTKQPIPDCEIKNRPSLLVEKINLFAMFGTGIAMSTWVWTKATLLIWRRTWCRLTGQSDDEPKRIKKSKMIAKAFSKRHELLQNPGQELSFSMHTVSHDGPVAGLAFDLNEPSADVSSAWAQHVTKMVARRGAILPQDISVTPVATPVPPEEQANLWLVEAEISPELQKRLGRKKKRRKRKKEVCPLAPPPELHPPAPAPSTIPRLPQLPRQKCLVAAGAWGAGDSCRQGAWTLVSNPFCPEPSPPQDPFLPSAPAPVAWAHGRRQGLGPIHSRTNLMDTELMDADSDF

IC50 [1]: 15 nM
SMILES: COc1ccc(-n2c(SCCCN3C(=O)c4cccc5cccc(c45)C3=O)nnc2-c2ccncc2)cc1 [WIKI4]

IC50 [2]: 3000 nM
SMILES: O=C1[C@H](Cc2ccc(O)cc2)N2C(=O)CCN(C(=O)NCc3ccccc3)[C@H]2CN1Cc1cccc2ccccc12 [ICG-001]

EC50 [3]: 0.5 nM
SMILES: O=C(CSc1nc2c(c(=O)n1-c1ccccc1)SCC2)Nc1ccc(-c2ccccc2)cn1 [IWP-L6]

Kd [4]: 59 nM
SMILES: CNC1CCC(N(Cc2cccc(-c3ccncc3)c2)C(=O)c2sc3ccccc3c2Cl)CC1 (stereo not shown) [SAG]

IC50 [5]: 27 nM
SMILES: Cc1ccc2nc(NC(=O)CSc3nc4c(c(=O)n3-c3ccccc3)SCC4)sc2c1 [IWP-2]

IC50 [6]: 0.4 nM
SMILES: Cc1cc(-c2ncc(CC(=O)Nc3ccc(-c4cnccn4)cn3)cc2C)ccn1 [LGK-974]

SMILES: Cc1cc(-c2ccc(CC(=O)Nc3ccc(-c4cccnc4)cc3)cc2)ccn1 [Wnt-C59]
IC50 [7]: 0.074 nM
